Reference: patent US20100316728A1, “Therapeutic mask and Method of Treatment Employing the Same” (priority 2009, published 2010)
Values joined by “and” are separate entries in the source; they are usually repeats but may differ in a detail not shown here. Equal values may be shown once.

Tests used:
Type in all cases: in vivo, human
patients [1] = test: Patient questionnaire on mask application, removal and skin reactions (dryness, burning, redness, itching, stinging); conditions: per patient, yes/no
patients [2] = test: Numbness felt by patients using the mask (with Lidocaine); conditions: per patient
Text: A separate and distinct benefit has been discovered through the use of the instant invention. […] This aids the speed in which the process can be performed on a patient.

patients [3] = test: Pain level felt by patients using the mask (with Lidocaine)
[4] = Table IX, CO2 procedure, unmasked side
[5] = Table X, CO2 procedure, unmasked side
[6] = Table XI, unmasked side, 0-10 scale
[7] = Pain Rate section, Results with Lidocaine, right side = side without mask, per patient
[8] = Results with Lidocaine, left side, mask on one side only, one value per patient, 10 = highest pain
[9] = Results with Lidocaine, right side, mask on one side only, one value per patient, 10 = highest pain
[10] = Table IX, CO2 procedure, unmasked side, per patient
[11] = Table VIII Pain Data, unmasked side, per patient
[12] = Table X, CO2 procedure, unmasked side, per patient
[13] = Table XII, unmasked side, 0-10 scale, per patient

SMILES: CCN(CC)CC(=O)Nc1c(C)cccc1C [Lidocaine]
- Dryness Right side (patients [1]): no
- Burning Right (patients [1]; right side): no (2×) and yes
- Itching Right (patients [1]; right side): no
- Redness Right (patients [1]; right side): yes (2×) and no
- Stinging Right (patients [1]; right side): yes (2×) and no
- Numbness Cheeks- (Left Side) (patients [2]; 1-10 scale, cheeks, left side): 4 and 8 and 9 and 3
- Numbness Cheeks- (Right Side) (patients [2]; 1-10 scale, cheeks, right side): 7 (3×) and 3 and 5 and 4 and 6
- Numbness- Chin (Left Side) (patients [2]; 1-10 scale, chin, left side): 4 and 8 and 9 and 7
- Numbness- Chin (Right Side) (patients [2]; 1-10 scale, chin, right side): 3 and 4 (2×) and 5 and 7 (2×) and 6
- Numbness- Forehead (Left Side) (patients [2]; 1-10 scale, forehead, left side): 4 and 8 and 9 and 2
- Numbness- Forehead (Right Side) (patients [2]; 1-10 scale, forehead, right side): 4 (2×) and 3 and 6 (2×) and 7 and 8
- Numbness- Mouth (Left Side) (patients [2]; 1-10 scale, mouth, left side): 4 and 8 and 9 and 5
- Numbness- Mouth (Right Side) (patients [2]; 1-10 scale, mouth, right side): 5 and 3 and 6 (2×) and 7 and 4 and 8
- Numbness Cheeks- (Unmasked Side) (patients [2]; [4]): 8 (3×) and 6 (4×)
- Numbness- Chin (Unmasked Side) (patients [2]; [4]): 9 and 6 (4×) and 8 (2×)
- Numbness- Forehead (Unmasked Side) (patients [2]; [4]): 9 and 6 (4×) and 8 (2×)
- Numbness- Mouth (Unmasked Side) (patients [2]; [4]): 8 (3×) and 6 (4×)
- Numbness Cheeks- (Unmasked Side) (patients [2]; [5]): 8 (3×) and 6 (4×)
- Numbness- Chin (Unmasked Side) (patients [2]; [5]): 9 and 6 (4×) and 8 (2×)
- Numbness- Forehead (Unmasked Side) (patients [2]; [5]): 9 and 6 (4×) and 8 (2×)
- Numbness- Mouth (Unmasked Side) (patients [2]; [5]): 8 (3×) and 6 (4×)
- Numbness Average Unmasked Side (patients [2]; Table XI summary, 0-10 scale): 8.5 and 6 (4×) and 8 (2×)
- Average (patients [2]; Table XI, average numbness, unmasked side, 0-10 scale): 8.5 and 6 (4×) and 8 (2×)
- Numbness Cheeks- (Unmasked Side) (patients [2]; [6]): 8 (3×) and 6 (4×)
- Numbness- Chin (Unmasked Side) (patients [2]; [6]): 9 and 6 (4×) and 8 (2×)
- Numbness- Forehead (Unmasked Side) (patients [2]; [6]): 9 and 6 (4×) and 8 (2×)
- Numbness- Mouth (Unmasked Side) (patients [2]; [6]): 8 (3×) and 6 (4×)
- Pain After proc. Cheeks (Left Side) (patients [3]; 1-10 scale, 1 least pain, 10 highest, after Fraxel or CO2 procedure, cheeks, left side): 10 and 6 and 5
- Pain After proc. Chin (Left Side) (patients [3]; 1-10 scale, 1 least pain, 10 highest, after Fraxel or CO2 procedure, chin, left side): 10 and 6 and 5
- Pain After proc. Forehead (Left Side) (patients [3]; 1-10 scale, 1 least pain, 10 highest, after Fraxel or CO2 procedure, forehead, left side): 10 and 6
- Average Right Side (patients [3]; Pain Rate section, Results with Lidocaine, average pain, right side = side without mask, per patient): 8.00 and 5.00 and 9.00 and 2.00
- Pain After proc. Cheeks (Right Side) (patients [3]; [7]): 8 and 5 and 9 and 2
- Pain After proc. Chin (Right Side) (patients [3]; [7]): 8 and 5 and 9 and 2
- Pain After proc. Forehead (Right Side) (patients [3]; [7]): 8 and 5 and 9 and 2
- Pain After proc. Mouth (Right Side) (patients [3]; [7]): 8 and 5 and 9 and 2
- Average Left Side (patients [3]; Results with Lidocaine, average pain of mouth, cheeks, forehead, chin, left side, per patient): 10.00 and 6.00 and 5.00
- Average Right Side (patients [3]; Results with Lidocaine, average pain of mouth, cheeks, forehead, chin, right side, per patient): 4.00 and 8.25 and 9.25 and 9.00 and 4.50 and 10.00
- Pain After proc. Cheeks (Left Side) (patients [3]; [8]): 10 and 6 and 5
- Pain After proc. Chin (Left Side) (patients [3]; [8]): 10 and 6 and 5
- Pain After proc. Forehead (Left Side) (patients [3]; [8]): 10 and 6 (2×)
- Pain After proc. Mouth (Left Side) (patients [3]; [8]): 10 and 6 and 4
- Pain After proc. Cheeks (Right Side) (patients [3]; [9]): 4 and 7 and 8 and 9 (2×) and 10
- Pain After proc. Chin (Right Side) (patients [3]; [9]): 4 and 6 (2×) and 8 and 9 and 10
- Pain After proc. Forehead (Right Side) (patients [3]; [9]): 4 (2×) and 10 (2×) and 8 and 9
- Pain After proc. Mouth (Right Side) (patients [3]; [9]): 4 (2×) and 10 (2×) and 8 and 9
- Pain After proc. Cheeks (Unmasked Side) (patients [3]; [10]): 8 (3×) and 9 and 2 and 5 and 6
- Pain After proc. Chin (Unmasked Side) (patients [3]; [10]): 8 (3×) and 9 and 2 and 5 and 6
- Pain After proc. Forehead (Unmasked Side) (patients [3]; [10]): 8 (3×) and 9 and 2 and 5 and 7
- Pain After proc. Mouth (Unmasked Side) (patients [3]; [10]): 8 (3×) and 9 and 2 and 5 and 6
- Average Pain (Unmasked Side) (patients [3]; [11]): 8 (3×) and 9 and 2 and 5 and 6.3
- Pain After proc. Cheeks (Unmasked Side) (patients [3]; [11]): 8 (3×) and 9 and 2 and 5 and 6
- Pain After proc. Chin (Unmasked Side) (patients [3]; [11]): 8 (3×) and 9 and 2 and 5 and 6
- Pain After proc. Forehead (Unmasked Side) (patients [3]; [11]): 8 (3×) and 9 and 2 and 5 and 7
- Pain After proc. Mouth (Unmasked Side) (patients [3]; [11]): 8 (3×) and 9 and 2 and 5 and 6
- Pain After proc. Cheeks (Unmasked Side) (patients [3]; [12]): 8 (3×) and 9 and 2 and 5 and 6
- Pain After proc. Chin (Unmasked Side) (patients [3]; [12]): 8 (3×) and 9 and 2 and 5 and 6
- Pain After proc. Forehead (Unmasked Side) (patients [3]; [12]): 8 (3×) and 9 and 2 and 5 and 7
- Pain After proc. Mouth (Unmasked Side) (patients [3]; [12]): 8 (3×) and 9 and 2 and 5 and 6
- Average Pain (Unmasked Side) (patients [3]; Table XII summary, 0-10 scale, per patient): 8 (3×) and 9 and 2 and 5 and 6.3
- Average Pain (Unmasked Side) (patients [3]; [13]): 8 (3×) and 9 and 2 and 5 and 6.3
- Pain After proc. Cheeks (Unmasked Side) (patients [3]; [13]): 8 (3×) and 9 and 2 and 5 and 6
- Pain After proc. Chin (Unmasked Side) (patients [3]; [13]): 8 (3×) and 9 and 2 and 5 and 6
- Pain After proc. Forehead (Unmasked Side) (patients [3]; [13]): 8 (3×) and 9 and 2 and 5 and 7
- Pain After proc. Mouth (Unmasked Side) (patients [3]; [13]): 8 (3×) and 9 and 2 and 5 and 6
